The conditions of series [1]: 303.15 K; 101 kPa; Liquid.
Series [2] can be described thus: refractive index (Na D-line) (dimensionless). The settings on record: 303.15 K; 101.33 kPa; Liquid.
Series [3] is described as follows: refractive index (Na D-line) (dimensionless); xn = mol fraction of the nth substance listed. The settings on record: 303.15 K, 101 kPa, Liquid.
Series [4] is described as follows: xn = mol fraction of the nth substance listed. The settings on record: 303.15 K, 101 kPa, Liquid.

Numbers after ± are expanded uncertainties.

As a reminder, the mass density is the mass of a sample divided by its volume. As a reminder, the speed of sound is how fast a sound wave travels through the sample. The refractive index is the speed of light in vacuum divided by its phase velocity in the sample.

As to `CCCCO` [butan-1-ol], in series [1], the mass density is reported as 802 ± 0.8 kg/m3 and the speed of sound amounted to 1231 ± 4.7 m/s. Moreover, in series [2], the refractive index was 1.3946 ± 0.0007.

`CCCCO` [butan-1-ol] + C[S+](C)[O-]: the refractive index in series [3] (x2 = 0) is listed as 1.3946 ± 0.0007. For the same compound, in series [4] (x2 = 0), the mass density is 802 ± 0.8 kg/m3 and the speed of sound stood at 1231 ± 4.7 m/s.

Turning to `C[S+](C)[O-]` [dimethyl sulfoxide], in series [1], the mass density worked out at 1094.9 ± 1.3 kg/m3 and the speed of sound was 1490.9 ± 5 m/s. In series [2], the refractive index is given as 1.4751 ± 0.0007.

For the compound `C[S+](C)[O-]` [dimethyl sulfoxide] + CCCCCCCO, the refractive index in series [3] (x1 = 1) was 1.4751 ± 0.0007. Also, in series [4] (x1 = 1), the mass density amounted to 1094.9 ± 1.3 kg/m3 and the speed of sound was found to be 1490.9 ± 7 m/s.

On to `C[S+](C)[O-]` [dimethyl sulfoxide] + CCCCCCO, for which, in series [3] (x1 = 1), the refractive index is on record as 1.4751 ± 0.0007. In series [4] (x1 = 1), the mass density came out at 1094.9 ± 2.4 kg/m3 and the speed of sound is 1490.9 ± 7 m/s.

As to `C[S+](C)[O-]` [dimethyl sulfoxide] + CCCCO, the refractive index in series [3] (x1 = 0.1034) is 1.4001 ± 0.0007; in series [3] (x1 = 0.2122), 1.4064 ± 0.0007; in series [3] (x1 = 0.3156), 1.4127 ± 0.0007; in series [3] (x1 = 0.4009), 1.4185 ± 0.0007; in series [3] (x1 = 0.5073), 1.4263 ± 0.0007; in series [3] (x1 = 0.6002) it was 1.4335 ± 0.0007. Moreover, the refractive index was 1.4417 ± 0.0007 in series [3] (x1 = 0.6957), 1.4527 ± 0.0007 in series [3] (x1 = 0.8112), 1.4633 ± 0.0007 in series [3] (x1 = 0.9051) and 1.4751 ± 0.0007 in series [3] (x1 = 1). For the same compound, the mass density is on record as 825.7 ± 0.8 kg/m3 in series [4] (x1 = 0.1034); 851.8 ± 0.9 kg/m3 in series [4] (x1 = 0.2122); 877.9 ± 0.9 kg/m3 in series [4] (x1 = 0.3156); 900.5 ± 1 kg/m3 in series [4] (x1 = 0.4009); 930.1 ± 1 kg/m3 in series [4] (x1 = 0.5073); 957.2 ± 1 kg/m3 in series [4] (x1 = 0.6002). In addition, the mass density in series [4] (x1 = 0.6957) was 986.6 ± 1.1 kg/m3; in series [4] (x1 = 0.8112), 1024.6 ± 1.2 kg/m3; in series [4] (x1 = 0.9051), 1058.4 ± 1.2 kg/m3; in series [4] (x1 = 1) it was 1094.9 ± 1.3 kg/m3. The speed of sound in series [4] (x1 = 0.1034) is on record as 1247.5 ± 4.7 m/s; in series [4] (x1 = 0.2122) it was 1267.5 ± 4.8 m/s; in series [4] (x1 = 0.3156), 1288 ± 4.8 m/s; in series [4] (x1 = 0.4009), 1305.5 ± 4.8 m/s; in series [4] (x1 = 0.5073) it was 1327.3 ± 4.8 m/s; in series [4] (x1 = 0.6002), 1347.5 ± 4.8 m/s. In addition, the speed of sound in series [4] (x1 = 0.6957) is 1371 ± 4.9 m/s; in series [4] (x1 = 0.8112), 1406.6 ± 4.9 m/s; in series [4] (x1 = 0.9051) it was 1443 ± 5 m/s; in series [4] (x1 = 1) it was 1490.9 ± 5 m/s.

Regarding `CCCCCCCO` [heptan-1-ol], in series [1], the mass density amounted to 815.7 ± 0.9 kg/m3 and the speed of sound is 1306 ± 6.6 m/s. In addition, in series [2], the refractive index was 1.4201 ± 0.0007.

`CCCCCCCO` [heptan-1-ol] + C[S+](C)[O-]: the refractive index in series [3] (x2 = 0) is given as 1.4201 ± 0.0007; in series [3] (x2 = 0.1096), 1.4209 ± 0.0007; in series [3] (x2 = 0.2535) it was 1.4242 ± 0.0007; in series [3] (x2 = 0.3668) it was 1.4277 ± 0.0007; in series [3] (x2 = 0.474) it was 1.4312 ± 0.0007; in series [3] (x2 = 0.5788) it was 1.4355 ± 0.0007. For the same compound, the refractive index amounted to 1.4402 ± 0.0007 in series [3] (x2 = 0.6708), 1.4458 ± 0.0007 in series [3] (x2 = 0.7598), 1.4528 ± 0.0007 in series [3] (x2 = 0.8376) and 1.4615 ± 0.0007 in series [3] (x2 = 0.9031). The mass density is 815.7 ± 0.9 kg/m3 in series [4] (x2 = 0); 825.7 ± 0.9 kg/m3 in series [4] (x2 = 0.1096); 846 ± 0.9 kg/m3 in series [4] (x2 = 0.2535); 866.8 ± 1 kg/m3 in series [4] (x2 = 0.3668); 889.4 ± 1 kg/m3 in series [4] (x2 = 0.474); 915.8 ± 1 kg/m3 in series [4] (x2 = 0.5788). The mass density in series [4] (x2 = 0.6708) worked out at 943.2 ± 1.1 kg/m3; in series [4] (x2 = 0.7598) it was 973.2 ± 1.1 kg/m3; in series [4] (x2 = 0.8376) it was 1003.5 ± 1.2 kg/m3; in series [4] (x2 = 0.9031) it was 1034.5 ± 1.2 kg/m3. Besides, the speed of sound in series [4] (x2 = 0) is on record as 1306 ± 6.6 m/s; in series [4] (x2 = 0.1096), 1312.3 ± 6.6 m/s; in series [4] (x2 = 0.2535), 1319.5 ± 6.6 m/s; in series [4] (x2 = 0.3668) it was 1329.9 ± 6.6 m/s; in series [4] (x2 = 0.474) it was 1338 ± 6.6 m/s; in series [4] (x2 = 0.5788), 1351.5 ± 6.7 m/s. Also, the speed of sound turned out to be 1369 ± 6.7 m/s in series [4] (x2 = 0.6708), 1384.6 ± 6.7 m/s in series [4] (x2 = 0.7598), 1409.3 ± 6.8 m/s in series [4] (x2 = 0.8376) and 1428.6 ± 6.8 m/s in series [4] (x2 = 0.9031).

For `CCCCCCO` [hexan-1-ol], in series [1], the mass density amounted to 811.8 ± 1.8 kg/m3 and the speed of sound was 1282 ± 6.7 m/s. Moreover, in series [2], the refractive index is listed as 1.4134 ± 0.0008.

For `CCCCCCO` [hexan-1-ol] + C[S+](C)[O-], the refractive index was 1.4134 ± 0.0008 in series [3] (x2 = 0); 1.4149 ± 0.0008 in series [3] (x2 = 0.1336); 1.4185 ± 0.0008 in series [3] (x2 = 0.2712); 1.4216 ± 0.0008 in series [3] (x2 = 0.3808); 1.4259 ± 0.0008 in series [3] (x2 = 0.4814); 1.4311 ± 0.0008 in series [3] (x2 = 0.5762). In addition, the refractive index is 1.4372 ± 0.0007 in series [3] (x2 = 0.666), 1.4448 ± 0.0007 in series [3] (x2 = 0.765), 1.4535 ± 0.0007 in series [3] (x2 = 0.848) and 1.4629 ± 0.0007 in series [3] (x2 = 0.9246). Moreover, the mass density was determined as 811.8 ± 1.8 kg/m3 in series [4] (x2 = 0); 832.6 ± 1.8 kg/m3 in series [4] (x2 = 0.1336); 857.6 ± 1.9 kg/m3 in series [4] (x2 = 0.2712); 880.7 ± 1.9 kg/m3 in series [4] (x2 = 0.3808); 904.6 ± 1.9 kg/m3 in series [4] (x2 = 0.4814); 929.7 ± 2 kg/m3 in series [4] (x2 = 0.5762). Moreover, the mass density in series [4] (x2 = 0.666) is reported as 956.3 ± 2 kg/m3; in series [4] (x2 = 0.765), 989.2 ± 2.1 kg/m3; in series [4] (x2 = 0.848), 1021.1 ± 2.2 kg/m3; in series [4] (x2 = 0.9246) it was 1054.7 ± 2.3 kg/m3. For the same compound, the speed of sound was 1282 ± 6.7 m/s in series [4] (x2 = 0); 1300.8 ± 6.7 m/s in series [4] (x2 = 0.1336); 1311.6 ± 6.7 m/s in series [4] (x2 = 0.2712); 1325.3 ± 6.7 m/s in series [4] (x2 = 0.3808); 1336.5 ± 6.7 m/s in series [4] (x2 = 0.4814); 1349.5 ± 6.7 m/s in series [4] (x2 = 0.5762). The speed of sound was 1368 ± 6.8 m/s in series [4] (x2 = 0.666), 1395 ± 6.8 m/s in series [4] (x2 = 0.765), 1420.5 ± 6.8 m/s in series [4] (x2 = 0.848) and 1448.5 ± 6.9 m/s in series [4] (x2 = 0.9246).

The record behind these values is the NIST ThermoML archive (doi:10.1007/s10765-005-8102-9).
